From patent US20230218632A1, “CYCLIC SULFONAMIDE DERIVATIVES AS TRAP1 MODULATORS AND USES THEREOF” (Amathus Therapeutics, Inc., priority 2020, published 2023)

Columns and labels:
[1] = test system: primary rat dopaminergic neurons; assay: ROS production in primary rat dopaminergic TH-positive neurons after 6-OHDA injury; assay type: cell-based; details: after injury with 6-OHDA (20 µM, 4 h); FIG. 1
Procedure: Rat dopaminergic neurons were cultured as described by Visanji et al., 2008. Briefly, pregnant female rat of 15 days of gestation are sacrificed using a deep anesthesia with CO2 chamber and a cervical dislocation. The midbrains obtained from 15-day-old rat embryos are dissected under a microscope. The embryonic midbrains are removed and placed in ice-cold medium of Leibovitz (L15) containing 2% of Penicillin- Streptomycin (PS) and 1% of bovine serum albumin (BSA). The ventral portion of the mesencephalic flexure, a region of the developing brain rich in dopaminergic neurons, is used for the cell preparations.
The midbrains are dissociated by trypsinisation for 20 min at 37° C. (solution at a final concentration of 0.05% trypsin and 0.02% EDTA). The reaction is stopped by the addition of Dulbecco’s modified Eagle’s medium (DMEM) containing DNAase I grade II (0.5 mg/mL) and 10% of foetal calf serum (FCS). Cells are then mechanically dissociated by 3 passages through a 10 mL pipette. Cells are then centrifuged at 180 x g for 10 min at +4° C. on a layer of BSA (3.5%) in L15 medium. […] Viable cells are counted in a Neubauer cytometer using the trypan blue exclusion test. […] Six wells per condition are assessed. […]

[2] = target: T1, TRAP1 enzyme (Homo sapiens, UniProt Q12931); assay: ADP Glo assay (ATPase activity of TRAP1); assay type: biochemical
T1 sequence (Q12931 60-704): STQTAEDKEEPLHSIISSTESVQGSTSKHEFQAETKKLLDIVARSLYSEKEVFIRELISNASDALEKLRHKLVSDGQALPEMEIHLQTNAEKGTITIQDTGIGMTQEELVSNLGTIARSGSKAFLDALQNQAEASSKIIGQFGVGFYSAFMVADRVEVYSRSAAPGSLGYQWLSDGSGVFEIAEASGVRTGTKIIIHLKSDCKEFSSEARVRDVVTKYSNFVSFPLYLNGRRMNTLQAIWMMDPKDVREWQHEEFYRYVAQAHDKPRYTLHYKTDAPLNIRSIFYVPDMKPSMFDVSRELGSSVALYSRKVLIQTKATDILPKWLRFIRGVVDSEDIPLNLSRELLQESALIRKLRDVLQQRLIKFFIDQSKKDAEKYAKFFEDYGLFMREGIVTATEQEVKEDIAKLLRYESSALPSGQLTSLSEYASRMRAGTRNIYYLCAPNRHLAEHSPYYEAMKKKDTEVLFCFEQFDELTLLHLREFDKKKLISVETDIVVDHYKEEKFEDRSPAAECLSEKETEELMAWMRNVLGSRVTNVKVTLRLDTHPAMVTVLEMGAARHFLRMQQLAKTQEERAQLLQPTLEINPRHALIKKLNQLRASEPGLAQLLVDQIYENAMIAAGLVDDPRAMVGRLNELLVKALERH
Procedure, shortened: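 150 nM TRAP1 preincubated 30 min at 37 °C with compound (0.79–100 µM) in 25 mM Pipes pH 7.5, 40 mM KCl, 0.05 mM MgCl2; reaction started with 20 µM ATP, 60 min at 37 °C. ADP quantified by ADP-Glo luminescence against an ATP/ADP standard curve; Emax and EC50 from sigmoidal fits of activation.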

- EC50 ([2]; 150 nM Trap1, 20 µM ATP, concentration for half maximal activation, read-out: ADP GLO DRC: GeoMean EC50): < 20 µM
- Emax ([2]; maximal percent activation, read-out: ADP GLO DRC: Mean Emax): 150 to 200%
SMILES: O=C(Nc1ccc2c(c1)S(=O)(=O)N(c1ccc(Br)cc1)CCO2)c1cnc(-c2ccccc2)[nH]1 [Compound 1331, N-(2-(4-bromophenyl)-1,1-dioxido-3,4-dihydro-2H-benzo[b][1,4,5]oxathiazepin-8-yl)-2-phenyl-1H-imidazole-5-carboxamide]
- ROS production [1]: reduction in ROS
